Legend:
Format in all cases: in vivo
[1] = tested on: ECHCG: Echinochloa crus-galli; assay: Post-emergence herbicidal effect; details: application rate 320 g/ha, treated at one-leaf stage, assessed visually after about 3 weeks, 100% = plants have died
Summary of the method: (§1)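 Greenhouse foliar spray, one-leaf stage; WP/EC formulation in water at 600 to 800 L/ha + 0.2% wetting agent. Visual % rating ~3 wk post-treatment vs untreated (100% = plants dead, 0% = as control).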

[2] = tested on: AMARE: Amaranthus retroflexus; assay: Post-emergence herbicidal effect; details: application rate 320 g/ha, treated at one-leaf stage, assessed visually after about 3 weeks, 100% = plants have died
Summary of the method: as §1

VERPE: Veronica persica [3] = assay: Post-emergence herbicidal effect; details: application rate 320 g/ha, treated at one-leaf stage, assessed visually after about 3 weeks, 100% = plants have died
Summary of the method: as §1

VIOTR: Viola tricolor = assay: Post-emergence herbicidal effect; details: application rate 320 g/ha, treated at one-leaf stage, assessed visually after about 3 weeks, 100% = plants have died
Summary of the method: as §1

STEME: Stellaria media [4] = assay: Post-emergence herbicidal effect; details: application rate 320 g/ha, treated at one-leaf stage, assessed visually after about 3 weeks, 100% = plants have died
Summary of the method: as §1

[5] = tested on: ALOMY: Alopecurus myosuroides; assay: Post-emergence herbicidal effect; details: application rate 320 g/ha, treated at one-leaf stage, assessed visually after about 3 weeks, 100% = plants have died
Summary of the method: as §1

[6] = tested on: ECHCG: Echinochloa crus-galli; assay: Pre-emergence herbicidal effect; details: application rate 320 g/ha, scored visually after 3 weeks, 100% = plants have died, 0% = like control plants
Summary of the method: (§2)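 Weed seeds were sown in sandy loam and covered with soil. Compounds, formulated as WP or EC, were sprayed onto the soil surface as aqueous suspension or emulsion at 600 to 800 L/ha water with 0.2% wetting agent. After 3 weeks in the greenhouse, damage was scored visually against untreated controls (0–100%).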

VERPE: Veronica persica [7] = assay: Pre-emergence herbicidal effect; details: application rate 320 g/ha, scored visually after 3 weeks, 100% = plants have died, 0% = like control plants
Summary of the method: as §2

[8] = tested on: LOLMU: Lolium multiflorum; assay: Pre-emergence herbicidal effect; details: application rate 320 g/ha, scored visually after 3 weeks, 100% = plants have died, 0% = like control plants
Summary of the method: as §2

SETVI: Setaria viridis = assay: Pre-emergence herbicidal effect; details: application rate 320 g/ha, scored visually after 3 weeks, 100% = plants have died, 0% = like control plants
Summary of the method: as §2

[9] = tested on: POLCO: Polygonum convolvulus; assay: Pre-emergence herbicidal effect; details: application rate 320 g/ha, scored visually after 3 weeks, 100% = plants have died, 0% = like control plants
Summary of the method: as §2

STEME: Stellaria media [10] = assay: Pre-emergence herbicidal effect; details: application rate 320 g/ha, scored visually after 3 weeks, 100% = plants have died, 0% = like control plants
Summary of the method: as §2

[11] = tested on: ABUTH: Abutilon theophrasti; assay: Pre-emergence herbicidal effect; details: application rate 320 g/ha, scored visually after 3 weeks, 100% = plants have died, 0% = like control plants
Summary of the method: as §2

[12] = tested on: MATIN: Matricaria inodora; assay: Pre-emergence herbicidal effect; details: application rate 320 g/ha, scored visually after 3 weeks, 100% = plants have died, 0% = like control plants
Summary of the method: as §2

[13] = tested on: ALOMY: Alopecurus myosuroides; assay: Pre-emergence herbicidal effect; details: application rate 320 g/ha, scored visually after 3 weeks, 100% = plants have died, 0% = like control plants
Summary of the method: as §2

Row | SMILES | Herbicidal activity with respect to [%] ECHCG [1] [%] | Herbicidal activity with respect to [%] AMARE [2] [%] | Herbicidal activity with respect to [%] VERPE (VERPE: Veronica persica [3]) [%] | Herbicidal activity with respect to [%] VIOTR (VIOTR: Viola tricolor) [%] | Herbicidal activity with respect to [%] STEME (STEME: Stellaria media [4]) [%] | Herbicidal activity with respect to [%] ALOMY [5] [%] | Herbicidal activity with respect to [%] ECHCG [6] [%] | Herbicidal activity with respect to [%] VERPE (VERPE: Veronica persica [7]) [%] | Herbicidal activity with respect to [%] LOLMU [8] [%] | Herbicidal activity with respect to [%] SETVI (SETVI: Setaria viridis) [%] | Herbicidal activity with respect to [%] POLCO [9] [%] | Herbicidal activity with respect to [%] STEME (STEME: Stellaria media [10]) [%] | Herbicidal activity with respect to [%] ABUTH [11] [%] | Herbicidal activity with respect to [%] MATIN [12] [%] | Herbicidal activity with respect to [%] ALOMY [13] [%]
1 | Cc1ccc2c(c1)[C@H](Nc1nnc(C(F)(F)F)c(N)n1)CCC2 [Example 1.52] | 100 | 100 | 90 | 90 | 100 | 100 | 100 | 100 | 100 | 100 | 100 | 100 | 100 | 100 | 100
2 | Cc1ccc2c(c1)[C@H](Nc1nnc(C(F)(F)F)c(N)n1)CC2 [Example 1.67] | 100 | 100 | 90 | 100 | 100 | 90 | 100 | 100 | 100 | 100 | 100 | 100 | 80 | 100 | 100
3 | Cc1ccc2c(c1)[C@H](Nc1nnc(C#N)c(N)n1)CC2 [Example 1.70] | 100 | 90 | 100 | 90 | 100 | 100 | 100 | 100 | 100 | 100 | 100 | 100 | 100 | 100 | 100
4 | Cc1ccc2c(c1)[C@H](Nc1nnc([S+](C)[O-])c(N)n1)CC2 (stereo partly drawn) [Example 1.71] | 100 | 80 | 80 | 90 | 100 | 90 | 100 | 100 | 100 | 100 | 100 | 100 | 100 | 100 | 100
5 | CC(=O)c1nnc(N[C@@H]2CCc3ccc(C)cc32)nc1N [Example 1.72] | 100 | 90 | 80 | 90 | 100 | 100 | 100 | 100 | 100 | 100 | 100 | 100 | 100 | 100 | 100
6 | Cc1ccc2c(c1)[C@H](Nc1nnc(S(C)(=O)=O)c(N)n1)CC2 [Example 1.73] | 100 | 100 | 100 | 90 | 100 | 100 | 100 | 100 | 100 | 100 | 100 | 100 | 100 | 100 | 100
